Reference: patent US12679838B2, “Aromatic compound and application thereof in antitumor drug” (Shanghai Zheye Biotechnology Co., Ltd., priority 2020, dated 2026)
Like-named read-outs stand apart in the source and are kept apart here. One block for each compound: values may come before it.

How the values were obtained:
[1] = system: Langendorff isolated perfused heart; assay: In vitro isolated heart perfusion test (Langendorff); parameters: species or system Guinea pig; conditions: 3.3 μM
Description: Test method: influences of Langendorff isolated perfused heart test compounds on electrocardiogram, wherein the test method used in this test was as follows: [table] Test compounds: compound 3-2M and the compound in Example 41 of patent WO2018217651A1 (i.e., AMG510).

[2] = system: NCI-H358 tumor cells xenograft; assay: Pharmacodynamics test of xenograft tumor model of NCI-H358 in nude mice; format: in vivo, Balb/c Nude mice; conditions: NCI-H358 xenograft, 100 mg/kg, QD×15 days, oral gavage
Protocol: Animal species and number: Balb/c Nude; 6 animals per group.
Samples for testing: compound 3-2M, compound 3-16M, TM-1, TM-3, and AMG510 (obtained by purchasing).
Test groups: blank solvent control group; compound 3-2M (100 mg/kg, QD×15 days), compound 3-16M (100 mg/kg, QD×15 days), TM-1 (100 mg/kg, QD×15 days), TM-3 (100 mg/kg, QD×15 days); and AMG510 (100 mg/kg, QD×15 days).
Animal model establishment: NCI-H358 tumor cells at logarithmic phase were cultured and collected in vitro, and inoculated subcutaneously on the right side of the back of nude mice at a quantity of 5×10^6 cells/each, and the tumor-bearing nude mice were randomly grouped when the tumor volume grew to 150-300 mm^3. Subsequently, each group of animals was administered and the day of the first administration was defined as day 1 of the test.
Administration route and frequency: oral gavage; and once a day.
General state observation: observation time and frequency: once a day; observation index or content: including, but is not limited to local administration, appearance and signs, general behavioral activities, mental status, death and other abnormal manifestations of the animals. The animals were euthanized at the end of the test.
Tumor volume calculation: V=½×long diameter× short diameter^2 (mm^3). Tumor growth inhibition ratio TGI (%) was used to evaluate the tumor suppressive efficacy of the compounds. TGI (%)=[1-(mean tumor volume at the end of administration of the treatment group−mean tumor volume at the beginning of administration of the treatment group)/(mean tumor volume at the end of administration of the control group−mean tumor volume at the beginning of administration of the control group)]×100%.

[3] = system: NCI-H358; assay: Cell proliferation inhibitory activity of NCI-H358, 3D model test (agarose colony formation); format: cell-based; conditions: Homo sapiens, NCI-H358; agarose gel, colony formation, NBT staining
Protocol: 100 μl of high concentration agarose gel was spread in a 96-well plate as a bottom agarose gel layer; low concentration agarose and growth medium containing cells were mixed and spread on the bottom agarose gel layer, cooled and solidified and incubated overnight at 37° C.; a test compound was prepared into a mother liquor with DMSO, diluted with a RPMI 1640 growth medium in a concentration gradient, and the gradient diluted solution of the compound to be tested with different concentrations was added into 96 wells containing upper agarose gel cells, and solvent control wells were set and placed in a carbon dioxide incubator for culture. During the period, the drug-containing medium was changed to observe the cell growth. After the culture, the cells were stained with NBT, the number of colony formation was counted, and the IC50 value of the compound inhibiting cell proliferation was obtained.

[4] = system: NCI-H358 cells; assay: Cell proliferation inhibitory activity, NCI-H358 (CellTiter-Glo); format: cell-based; conditions: for IC50: Homo sapiens
Protocol: (§1) NCI-H358 cells in an exponential growth phase were digested with trypsin-EDTA and plated in a 96-well plate at 2000-3000 cells per well and incubated overnight at 37° C. with 5% CO2. A test compound was prepared as a mother liquor with DMSO, diluted with a RPMI 1640 growth medium in a concentration gradient and added to the 96-well plate and incubated for 72 hours at 37° C. in a 5% CO2 incubator. After incubation, an equal volume of CellTiter-Glo detection reagent was added to each well and incubated after shaking, and a chemiluminescence value was measured by a microplate reader, and the IC50 value for the inhibition of NCI-H358 cell proliferation was fitted and calculated by GraphPad Prism software.
The inhibitory effect of the compounds on the proliferation activity of H358 cells was tested with reference to the method of the biological test 2, and the results were as follows:
The inhibitory effect of the compounds on the proliferation activity of NCI-H358 cells was tested with reference to the method of the biological test 2, and the results were as follows.

[5] = system: MIA PaCa-2 cells; assay: Cell proliferation inhibitory activity, MIA PaCa-2 (CellTiter-Glo); format: cell-based; conditions: for IC50: Homo sapiens, MIA PaCa-2 cells, 72 hours
Protocol: as §1, with “MIA PaCa-2” for “NCI-H358”, “DMEM” for “RPMI 1640”

[6] = NCI-H358, biological test 7, NCI-H358 cells, read-out: Cell proliferation inhibitory activity IC50 value of NCI-H358
[7] = NCI-H358, biological test 3, H358 cells, read-out: Cell proliferation inhibitory activity IC50 value of H358
[8] = NCI-H358, 72 h, biological test 2, NCI-H358 cells, 72 hours, read-out: Cell proliferation inhibitory activity IC50 value of H358

Compound: C=CC(=O)N1CCN(c2nc(=O)n(-c3c(C)ccnc3C(C)C)c3nc(-c4c(O)cccc4F)c(F)cc23)[C@@H](C)C1 [AMG510, reference compound]
effect on the heart rate of the isolated heart (in words) [1]: significant effect on reducing the heart rate | HR (heart rate) change % ([1]; Guinea pig isolated heart): C (“C” represents that the heart rate decreases by greater than or equal to 15%) | Tumor suppression ratio (%) [2]: +++ (“+++” represents that the tumor suppression ratio is between 101% and 140%) | IC50 [3]: 9.3 nM

Compound: C=CC(=O)N1CCN(c2nc(=O)n(-c3c(C)ccnc3C(C)C)c3nc(-c4c(F)cccc4C=O)c(Cl)cc23)[C@@H](C)C1 [Compound 3-6]
cell proliferation inhibitory activity against KRAS G12C mutant cells NCI-H358 (in words) [4]: significant cell proliferation inhibitory activities | cell proliferation inhibitory activity against KRAS G12C mutant cells MIA PaCa-2 (in words) [5]: significant cell proliferation inhibitory activities | IC50 [5]: < 50 nM

Compound: [2H]C(=O)c1ccccc1-c1nc2c(cc1Cl)c(N1[C@@H](C)CN(C(=[18O])C=C)C[C@@H]1C)nc(=O)n2-c1c(C)ccnc1C(C)C [Compound 3-8MIS]
cell proliferation inhibitory activity against KRAS G12C mutant cells NCI-H358 (in words) [4]: significant cell proliferation inhibitory activities | IC50 [4, 7]: < 50 nM

Compound: C=CC(=O)N1CCN(c2nc(=O)n(-c3c(C)ccnc3C(C)C)c3nc(-c4ccccc4C=O)c(Cl)cc23)[C@@H](C)C1 [Compound 3-2]
cell proliferation inhibitory activity against KRAS G12C mutant cells NCI-H358 (in words) [4]: significant cell proliferation inhibitory activities | IC50 [4, 8]: ≤ 50 nM | cell proliferation inhibitory activity against KRAS G12C mutant cells MIA PaCa-2 (in words) [5]: significant cell proliferation inhibitory activities | IC50 [5]: < 50 nM

Compound: C=CC(=[18O])N1CCN(c2nc(=O)n(-c3c(CC)ccnc3C(C)C)c3nc(-c4ccccc4C=O)c(Cl)cc23)[C@@H](C)C1 [Compound 3-2MIS]
cell proliferation inhibitory activity against KRAS G12C mutant cells NCI-H358 (in words) [4]: significant cell proliferation inhibitory activities | IC50 [4, 7]: < 50 nM

Compound: [2H]C(=O)c1cccc(F)c1-c1nc2c(cc1Cl)c(N1CCN(C(=[18O])C=C)C[C@@H]1C)nc(=O)n2-c1c(C)ccnc1C(C)C [Compound 3-7MIS]
cell proliferation inhibitory activity against KRAS G12C mutant cells NCI-H358 (in words) [4]: significant cell proliferation inhibitory activities | IC50 [4, 7]: < 50 nM

Compound: C=CC(=O)N1CCN(c2nc(=O)n(-c3c(C)ccnc3C(C)C)c3nc(-c4c(F)cccc4C=O)c(Cl)cc23)[C@@H](C)C1 [Compound 3-6P]
IC50 [4, 8]: > 50 nM

Compound: [2H]C(=O)c1ccccc1-c1nc2c(cc1Cl)c(N1[C@@H](C)CN(C(=O)C=C)C[C@@H]1C)nc(=O)n2-c1c(C)ccnc1C(C)C [Compound 3-14]
cell proliferation inhibitory activity against KRAS G12C mutant cells NCI-H358 (in words) [4]: significant cell proliferation inhibitory activities | IC50 [4, 8]: ≤ 50 nM

Compound: [2H]C(=O)c1ccccc1-c1nc2c(cc1Cl)c(N1CCN(C(=[18O])C=C)C[C@@H]1C)nc(=O)n2-c1c(C)ccnc1C(C)C [Compound 3-5MIS]
cell proliferation inhibitory activity against KRAS G12C mutant cells NCI-H358 (in words) [4]: significant cell proliferation inhibitory activities | IC50 [4, 7]: < 50 nM

Compound: C=CC(=O)N1C[C@H](C)N(c2nc(=O)n(-c3c(C)ccnc3C(C)C)c3nc(-c4ccccc4C(N)=O)c(Cl)cc23)C[C@H]1C [TM-2, reference compound]
IC50 [4, 6]: > 150 nM

More lines, main results first:

IC50 [4, 6]: < 50 nM
Compound: C=CC(=O)N1CCN(c2nc(=O)n(-c3c(C(C)C)ncnc3C(C)C)c3nc(-c4ccccc4C=O)c(Cl)cc23)[C@@H](C)C1 [Compound 3-31]
cell proliferation inhibitory activity against KRAS G12C mutant cells NCI-H358 (in words) [4]: significant cell proliferation inhibitory activities

IC50 [4, 6]: > 150 nM
Compound: C=CC(=O)N1C[C@H](C)N(c2nc(=O)n(-c3c(C)ccnc3C(C)C)c3nc(-c4ccccc4C(=O)O)c(Cl)cc23)C[C@H]1C [TM-3, reference compound]
Tumor suppression ratio (%) [2]: + (“+” represents that the tumor suppression ratio is less than 60%)

IC50 [4, 7]: < 50 nM
Compound: C=CC(=[18O])N1CCN(c2nc(=O)n(-c3c(C)ccnc3C(C)C)c3nc(-c4ccccc4C=O)c(Cl)cc23)[C@@H](C)C1 [Compound 3-1MIS]
cell proliferation inhibitory activity against KRAS G12C mutant cells NCI-H358 (in words) [4]: significant cell proliferation inhibitory activities

IC50 [5]: < 50 nM
Compound: C=CC(=O)N1C[C@H](C)N(c2nc(=O)n(-c3c(C)ccnc3C(C)C)c3nc(-c4ccccc4C=O)c(Cl)cc23)C[C@H]1C [Compound 3-17M]
cell proliferation inhibitory activity against KRAS G12C mutant cells MIA PaCa-2 (in words) [5]: significant cell proliferation inhibitory activities

IC50 [4, 7]: < 50 nM
Compound: C=CC(=[18O])N1CCN(c2nc(=O)n(-c3c(C)ccnc3C(C)C)c3nc(-c4c(F)cccc4C=O)c(Cl)cc23)[C@@H](C)C1 [Compound 3-3MIS]
cell proliferation inhibitory activity against KRAS G12C mutant cells NCI-H358 (in words) [4]: significant cell proliferation inhibitory activities

IC50 [5]: < 50 nM
Compound: C=CC(=O)N1C[C@H](C)N(c2nc(=O)n(-c3c(C)ccnc3C(C)C)c3nc(-c4c(F)cccc4C=O)c(Cl)cc23)C[C@H]1C [Compound 3-19M]
cell proliferation inhibitory activity against KRAS G12C mutant cells MIA PaCa-2 (in words) [5]: significant cell proliferation inhibitory activities

IC50 [4, 8]: ≤ 50 nM | IC50 [4, 6]: < 50 nM
Compound: [2H]C(=O)c1ccccc1-c1nc2c(cc1Cl)c(N1CCN(C(=O)C=C)C[C@@H]1C)nc(=O)n2-c1c(CC)ccnc1C(C)C [Compound 3-6B]
cell proliferation inhibitory activity against KRAS G12C mutant cells NCI-H358 (in words) [4]: significant cell proliferation inhibitory activities

IC50 [4, 6]: 50 to 150 nM
Compound: C=CC(=O)N1CCN(c2nc(=O)n(-c3c(C)ccnc3C(C)C)c3nc(-c4ccccc4C(C)=O)c(Cl)cc23)[C@@H](C)C1 [TM-1, reference compound]
Tumor suppression ratio (%) [2]: ++ (“++” represents that the tumor suppression ratio is between 60% and 100%)

IC50 [4, 7]: < 50 nM
Compound: [2H]C(=O)c1ccccc1-c1nc2c(cc1Cl)c(N1CCN(C(=[18O])C=C)C[C@@H]1C)nc(=O)n2-c1c(CC)ccnc1C(C)C [Compound 3-6MIS]
cell proliferation inhibitory activity against KRAS G12C mutant cells NCI-H358 (in words) [4]: significant cell proliferation inhibitory activities

IC50 [4, 8]: ≤ 50 nM
Compound: [2H]C(=O)c1ccccc1-c1nc2c(cc1Cl)c(N1CCN(C(=O)C=C)C[C@]1([2H])C)nc(=O)n2-c1c(C)ccnc1C(C)C [Compound 3-28M]
cell proliferation inhibitory activity against KRAS G12C mutant cells NCI-H358 (in words) [4]: significant cell proliferation inhibitory activities

IC50 [4, 7]: < 50 nM
Compound: C=CC(=[18O])N1C[C@H](C)N(c2nc(=O)n(-c3c(C)ccnc3C(C)C)c3nc(-c4ccccc4C=O)c(Cl)cc23)[C@@H](C)C1 [Compound 3-4MIS]
cell proliferation inhibitory activity against KRAS G12C mutant cells NCI-H358 (in words) [4]: significant cell proliferation inhibitory activities
